Converted amounts (≈) assume the structure as drawn. Like-named read-outs stand apart in the source and are kept apart here. Starred links: 1 amine or outer side, 2 acyl side, 3 side chain; linkers in the order of their positions; H or OH if unused. Positions of bridges follow the written chain, without caps; N, C: chain ends. Residues, ends and D or L forms follow the SMILES beside them. Groups on a side chain read outwards from the residue. *: point of attachment. C20 diacid = O=C(O)CCCCCCCCCCCCCCCCCCC(=O)*; γGlu = O=C(O)[C@H](CCC(=O)[*:2])N[*:1]; AEEA = NCCOCCOCC(=O)O
Experiment: Assay (IV) determination of solubility
Format: physicochemical
Description: ASSAY (IV)—Determination of Solubility
The polypeptide was dissolved in water at ˜500 nmol/ml and mixed 1:1 with a series of buffers (100 mM glycylglycine pH 3.0, 100 mM glycylglycine pH 4.0, 100 mM glycylglycine pH 5.0, 100 mM bistrispropane pH 6.0, 100 mM bistrispropane pH 6.5, 100 mM bistrispropane pH 7.0, 100 mM bistrispropane pH 7.5, 100 mM bistrispropane pH 8.0). After 18 hours at room temperature the samples were centrifuged and the polypeptide concentration determined by HPLC.

[1] = pH 3, pH 3.0, read-out: Solubility pH 3.0
[2] = pH 4, pH 4.0, 18 hours at room temperature, Table 2, read-out: Solubility pH 4.0
[3] = pH 4, pH 4.0, read-out: Solubility pH 4.0
[4] = pH 5, pH 5.0, read-out: Solubility pH 5.0
[5] = pH 6, pH 6.0, read-out: Solubility pH 6.0
[6] = pH 6.5, pH 6.5, read-out: Solubility pH 6.5
[7] = pH 7, pH 7.0, read-out: Solubility pH 7.0
[8] = pH 7.5, pH 7.5, read-out: Solubility pH 7.5
[9] = pH 8, pH 8.0, read-out: Solubility pH 8.0

## CC[C@H](C)[C@H](NC(=O)[C@@H]1CCCN1C(=O)CNC(=O)[C@H](Cc1ccccc1)NC(=O)[C@H](CC(N)=O)NC(=O)[C@H](CCCCNC(=O)COCCOCCNC(=O)COCCOCCNC(=O)CC[C@H](NC(=O)CCCCCCCCCCCCCCCCCCC(=O)O)C(=O)O)NC(=O)[C@H](CO)NC(=O)[C@H](CO)NC(=O)[C@H](Cc1c[nH]cn1)NC(=O)[C@@H](NC(=O)[C@H](CC(C)C)NC(=O)[C@H](Cc1ccccc1)NC(=O)[C@H](CCC(=O)O)NC(=O)[C@H](C)NC(=O)[C@H](CC(C)C)NC(=O)[C@H](CCCNC(=N)N)NC(=O)[C@H](CCC(N)=O)NC(=O)[C@@H](NC(=O)[C@H](C)NC(=O)[C@@H]1CSSC[C@H](NC(=O)[C@@H](N)CCCCN)C(=O)N[C@@H](CC(N)=O)C(=O)N[C@@H]([C@@H](C)O)C(=O)N[C@@H](C)C(=O)N[C@@H]([C@@H](C)O)C(=O)N1)[C@@H](C)O)C(C)C)C(=O)N[C@@H](CC(C)C)C(=O)N1CCC[C@H]1C(=O)N1CCC[C@H]1C(=O)N[C@H](C(=O)N[C@@H](CC(N)=O)C(=O)N[C@H](C(=O)NCC(=O)N[C@@H](CO)C(=O)N[C@@H](Cc1c[nH]cn1)C(=O)N[C@H](C(=O)N[C@@H](Cc1ccc(O)cc1)C(N)=O)[C@@H](C)O)C(C)C)[C@@H](C)O [Example 132, N-epsilon21-[2-(2-{2-[2-(2-{2-[(S)-4-Carboxy-4-(19-carboxyheptadecanoylamino)butyrylamino]ethoxy}ethoxy)acetylamino]ethoxy}ethoxy)acetyl]-[Glu14,Lys21,His35]-pramlintide] (H-KCNTATCATQRLAEFLVHSSK([AEEA-AEEA-γGlu-C20 diacid])NFGPILPPTNVGSHTY-NH2; disulfide 2-7)
[1]
  solubility: > 200 µM
[2]
  solubility: > 200 µM
[3]
  solubility: > 200 µM
[4]
  solubility: > 200 µM
[5]
  solubility: > 200 µM
[6]
  solubility: 198 µM (≈ 940 µg/mL)
pH 7, pH 7.0, 18 hours at room temperature, Table 3, read-out: Solubility pH 7.0
  solubility: 142 µM (≈ 674 µg/mL)
[7]
  solubility: 142 µM (≈ 674 µg/mL)
[8]
  solubility: 169 µM (≈ 802 µg/mL)
[9]
  solubility: > 200 µM

## CC[C@H](C)[C@H](NC(=O)[C@H](CCCCNC(=O)COCCOCCNC(=O)COCCOCCNC(=O)CC[C@H](NC(=O)CCCCCCCCCCCCCCCCCCC(=O)O)C(=O)O)NC(=O)CNC(=O)[C@H](Cc1ccccc1)NC(=O)[C@H](CC(N)=O)NC(=O)[C@H](CO)NC(=O)[C@H](CO)NC(=O)[C@H](CO)NC(=O)[C@H](Cc1c[nH]cn1)NC(=O)[C@H](Cc1c[nH]cn1)NC(=O)[C@H](CC(C)C)NC(=O)[C@H](Cc1ccccc1)NC(=O)[C@H](CCC(=O)O)NC(=O)[C@H](C)NC(=O)[C@H](CC(C)C)NC(=O)[C@H](CCCNC(=N)N)NC(=O)[C@H](CCC(N)=O)NC(=O)[C@@H](NC(=O)[C@H](C)NC(=O)[C@@H]1CSSC[C@H](NC(=O)[C@@H](N)CCCCN)C(=O)N[C@@H](CC(N)=O)C(=O)N[C@@H]([C@@H](C)O)C(=O)N[C@@H](C)C(=O)N[C@@H]([C@@H](C)O)C(=O)N1)[C@@H](C)O)C(=O)N[C@@H](CC(C)C)C(=O)N[C@@H](CO)C(=O)N[C@@H](CO)C(=O)N[C@H](C(=O)N[C@@H](CC(N)=O)C(=O)N[C@H](C(=O)NCC(=O)N[C@@H](CO)C(=O)N[C@@H](Cc1c[nH]cn1)C(=O)N[C@H](C(=O)N[C@@H](Cc1ccc(O)cc1)C(N)=O)[C@@H](C)O)C(C)C)[C@@H](C)O [Example 133, N-epsilon25-[2-(2-{2-[2-(2-{2-[(S)-4-Carboxy-4-(19-carboxyheptadecanoylamino)butyrylamino]ethoxy}ethoxy)acetylamino]ethoxy}ethoxy)acetyl]-[Glu14,His17,Ser21,Lys25,Ser28,Ser29.His35]-pramlintide] (H-KCNTATCATQRLAEFLHHSSSNFGK([AEEA-AEEA-γGlu-C20 diacid])ILSSTNVGSHTY-NH2; disulfide 2-7)
[1]
  solubility: > 200 µM
[2]
  solubility: > 200 µM
[3]
  solubility: > 200 µM
[4]
  solubility: 107 µM (≈ 509 µg/mL)
[5]
  solubility: 1 µM (≈ 4.75 µg/mL)
[6]
  solubility: 1 µM (≈ 4.75 µg/mL)
[7]
  solubility: 1 µM (≈ 4.75 µg/mL)
[8]
  solubility: 1 µM (≈ 4.75 µg/mL)

## CC[C@H](C)[C@H](NC(=O)[C@H](CCCCNC(=O)COCCOCCNC(=O)COCCOCCNC(=O)CC[C@H](NC(=O)CCCCCCCCCCCCCCCCCCC(=O)O)C(=O)O)NC(=O)CNC(=O)[C@H](Cc1ccccc1)NC(=O)[C@H](CC(N)=O)NC(=O)[C@H](Cc1c[nH]cn1)NC(=O)[C@H](CO)NC(=O)[C@H](CO)NC(=O)[C@H](Cc1c[nH]cn1)NC(=O)[C@H](Cc1c[nH]cn1)NC(=O)[C@H](CC(C)C)NC(=O)[C@H](Cc1ccccc1)NC(=O)[C@H](CC(N)=O)NC(=O)[C@H](C)NC(=O)[C@H](CC(C)C)NC(=O)[C@H](CCCNC(=N)N)NC(=O)[C@H](CCC(N)=O)NC(=O)[C@@H](NC(=O)[C@H](C)NC(=O)[C@@H]1CSSC[C@H](NC(=O)[C@@H](N)CCCCN)C(=O)N[C@@H](CC(N)=O)C(=O)N[C@@H]([C@@H](C)O)C(=O)N[C@@H](C)C(=O)N[C@@H]([C@@H](C)O)C(=O)N1)[C@@H](C)O)C(=O)N[C@@H](CC(C)C)C(=O)N[C@@H](CO)C(=O)N[C@@H](CO)C(=O)N[C@H](C(=O)N[C@@H](CC(N)=O)C(=O)N[C@H](C(=O)NCC(=O)N[C@@H](CO)C(=O)N[C@@H](Cc1c[nH]cn1)C(=O)N[C@H](C(=O)N[C@@H](Cc1ccc(O)cc1)C(N)=O)[C@@H](C)O)C(C)C)[C@@H](C)O [Example 134, N-epsilon25-[2-(2-{2-[2-(2-{2-[(S)-4-Carboxy-4-(19-carboxyheptadecanoylamino)butyrylamino]ethoxy}ethoxy)acetylamino]ethoxy}ethoxy)acetyl]-[His17,His21,Lys25,Ser28,Ser29.His35]-pramlintide] (H-KCNTATCATQRLANFLHHSSHNFGK([AEEA-AEEA-γGlu-C20 diacid])ILSSTNVGSHTY-NH2; disulfide 2-7)
[1]
  solubility: > 200 µM
[3]
  solubility: > 200 µM
[4]
  solubility: > 200 µM
[5]
  solubility: 3 µM (≈ 14.4 µg/mL)
[6]
  solubility: 1 µM (≈ 4.79 µg/mL)
[7]
  solubility: 2 µM (≈ 9.58 µg/mL)
[8]
  solubility: 3 µM (≈ 14.4 µg/mL)
[9]
  solubility: 2 µM (≈ 9.58 µg/mL)

## CC[C@H](C)[C@H](NC(=O)[C@H](CCCCNC(=O)COCCOCCNC(=O)COCCOCCNC(=O)CC[C@H](NC(=O)CCCCCCCCCCCCCCCCCCC(=O)O)C(=O)O)NC(=O)CNC(=O)[C@H](Cc1ccccc1)NC(=O)[C@H](CC(N)=O)NC(=O)[C@H](CC(N)=O)NC(=O)[C@H](CO)NC(=O)[C@H](CO)NC(=O)[C@H](Cc1c[nH]cn1)NC(=O)[C@H](Cc1c[nH]cn1)NC(=O)[C@H](CC(C)C)NC(=O)[C@H](Cc1ccccc1)NC(=O)[C@H](CC(N)=O)NC(=O)[C@H](C)NC(=O)[C@H](CC(C)C)NC(=O)[C@H](CCCNC(=N)N)NC(=O)[C@H](CCC(N)=O)NC(=O)[C@@H](NC(=O)[C@H](C)NC(=O)[C@@H]1CSSC[C@H](NC(=O)[C@@H](N)CCCCN)C(=O)N[C@@H](CC(N)=O)C(=O)N[C@@H]([C@@H](C)O)C(=O)N[C@@H](C)C(=O)N[C@@H]([C@@H](C)O)C(=O)N1)[C@@H](C)O)C(=O)N[C@@H](CC(C)C)C(=O)N[C@@H](CO)C(=O)N[C@@H](CO)C(=O)N[C@H](C(=O)N[C@@H](CC(N)=O)C(=O)N[C@H](C(=O)NCC(=O)N[C@@H](CO)C(=O)N[C@@H](Cc1c[nH]cn1)C(=O)N[C@H](C(=O)N[C@@H](Cc1ccc(O)cc1)C(N)=O)[C@@H](C)O)C(C)C)[C@@H](C)O [Example 140, N-epsilon25-[2-(2-{2-[2-(2-{2-[(S)-4-Carboxy-4-(19-carboxyheptadecanoylamino)butyrylamino]ethoxy}ethoxy)acetylamino]ethoxy}ethoxy)acetyl]-[His17,Lys25,Ser28,Ser29,His35]-pramlintide] (H-KCNTATCATQRLANFLHHSSNNFGK([AEEA-AEEA-γGlu-C20 diacid])ILSSTNVGSHTY-NH2; disulfide 2-7)
[1]
  solubility: > 200 µM
[2]
  solubility: > 200 µM
[3]
  solubility: > 200 µM
[4]
  solubility: 104 µM (≈ 496 µg/mL)
[5]
  solubility: 2 µM (≈ 9.53 µg/mL)
[6]
  solubility: 1 µM (≈ 4.77 µg/mL)
[7]
  solubility: 1 µM (≈ 4.77 µg/mL)
[8]
  solubility: 1 µM (≈ 4.77 µg/mL)

## CC[C@H](C)[C@H](NC(=O)[C@@H]1CCCN1C(=O)CNC(=O)[C@H](Cc1ccccc1)NC(=O)[C@H](CC(N)=O)NC(=O)[C@H](CCCCNC(=O)COCCOCCNC(=O)COCCOCCNC(=O)CC[C@H](NC(=O)CCCCCCCCCCCCCCCCCCC(=O)O)C(=O)O)NC(=O)[C@H](CO)NC(=O)[C@H](CO)NC(=O)[C@H](Cc1c[nH]cn1)NC(=O)[C@H](Cc1c[nH]cn1)NC(=O)[C@H](CC(C)C)NC(=O)[C@H](Cc1ccccc1)NC(=O)[C@H](CC(N)=O)NC(=O)[C@H](C)NC(=O)[C@H](CC(C)C)NC(=O)[C@H](CCCNC(=N)N)NC(=O)[C@H](CCC(N)=O)NC(=O)[C@@H](NC(=O)[C@H](C)NC(=O)[C@@H]1CSSC[C@H](NC(=O)[C@@H](N)CCCCN)C(=O)N[C@@H](CC(N)=O)C(=O)N[C@@H]([C@@H](C)O)C(=O)N[C@@H](C)C(=O)N[C@@H]([C@@H](C)O)C(=O)N1)[C@@H](C)O)C(=O)N[C@@H](CC(C)C)C(=O)N[C@@H](CO)C(=O)N1CCC[C@H]1C(=O)N[C@H](C(=O)N[C@@H](CC(N)=O)C(=O)N[C@H](C(=O)NCC(=O)N[C@@H](CO)C(=O)N[C@@H](Cc1c[nH]cn1)C(=O)N[C@H](C(=O)N[C@@H](Cc1ccc(O)cc1)C(N)=O)[C@@H](C)O)C(C)C)[C@@H](C)O [Example 141, N-epsilon21-[2-(2-{2-[2-(2-{2-[(S)-4-Carboxy-4-(19-carboxyheptadecanoylamino)butyrylamino]ethoxy}ethoxy)acetylamino]ethoxy}ethoxy)acetyl]-[His17,Lys21,Ser28,His35]-pramlintide] (H-KCNTATCATQRLANFLHHSSK([AEEA-AEEA-γGlu-C20 diacid])NFGPILSPTNVGSHTY-NH2; disulfide 2-7)
[1]
  solubility: > 200 µM
[3]
  solubility: > 200 µM
[4]
  solubility: > 200 µM
[5]
  solubility: 84 µM (≈ 400 µg/mL)
[6]
  solubility: 3 µM (≈ 14.3 µg/mL)
[7]
  solubility: 2 µM (≈ 9.52 µg/mL)
[8]
  solubility: 1 µM (≈ 4.76 µg/mL)

Source: patent US8722849B2, “Polypeptides” (Novo Nordisk A/S, priority 2011, dated 2014)
